Tests used:
Gal4DBD/AaEcR (DEF) = target: T1, Gal4DBD/AaEcR (DEF) (Aedes aegypti, UniProt P49880); assay: cell-based; format: cell-based; conditions: for Fold Induction Average, AA_3T3V1 Assay 33 μM: 3T3 cells, 48 h, average of two wells
T1 construct: The wildtype D, E, and F domains from mosquito Aedes aegypti EcR; expressed in transfected cells; host or cells: 3T3 cells
Method: 3T3 cells were trypsinized and plated at 2.5×10^3 cells/well on a 96-well plate. After incubation for 24 h at 37° C. under 5% CO2, cells were transfected with the Gal4DBD/AaEcR (DEF) gene expression cassette and the reporter plasmid, pFRLuc, containing a 5× GAL4 response element and the firefly luciferase gene in serum free media using Superfect (Qiagen). After transfection for 4 h at 37° C., the cells were treated with ligand in serum media. […] Single dose testing was performed at 33 μM.

[1] = target: T2, Bombyx mori EcR (VP16-BmEcR, CVBE) (Bombyx mori, UniProt P49881); assay: Z3 assay (HEK-293 clone Z3 with CVBE and 6x EcRE LacZ, β-galactosidase reporter); format: cell-based; conditions: average of two wells; for Fold Induction Average, Z3V1 Assay 33 μM: 48 h
T2 construct: expressed in transfected cells
T2 sequence (P49881 86-606): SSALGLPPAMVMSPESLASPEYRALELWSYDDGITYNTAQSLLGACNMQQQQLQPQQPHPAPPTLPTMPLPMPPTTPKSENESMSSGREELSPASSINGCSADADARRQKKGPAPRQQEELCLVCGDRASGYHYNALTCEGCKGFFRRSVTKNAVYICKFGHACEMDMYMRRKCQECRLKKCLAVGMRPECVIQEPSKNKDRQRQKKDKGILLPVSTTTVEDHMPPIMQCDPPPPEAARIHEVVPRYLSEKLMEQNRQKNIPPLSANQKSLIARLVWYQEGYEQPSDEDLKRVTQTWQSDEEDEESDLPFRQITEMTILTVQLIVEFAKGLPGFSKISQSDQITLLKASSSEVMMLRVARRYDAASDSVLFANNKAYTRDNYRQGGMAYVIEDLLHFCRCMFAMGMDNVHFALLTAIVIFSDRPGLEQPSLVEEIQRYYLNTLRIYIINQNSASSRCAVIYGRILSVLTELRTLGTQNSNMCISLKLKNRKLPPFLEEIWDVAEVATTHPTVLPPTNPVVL
Source text: Dr. F. Gage provided a population of stably transformed cells containing CVBE and 6× EcRE as described in (Suhr et. al. 1998). Human 293 kidney cells, also referred to as HEK-293 cells, were sequentially infected with retroviral vectors encoding first the switch construct CVBE, and subsequently the reporter construct 6× EcRE Lac Z. The switch construct contained the coding sequence for amino acids 26-546 from Bombyx nori EcR (BE) (Iatrou) inserted in frame and downstream of the VP16 transactivation domain (VBE). A synthetic ATG start codon was placed under the control of cytomegalovirus (CVBE) immediate early promoter and flanked by long terminal repeats (LTR). The reporter-construct contained six copies of the ecdysone response element (EcRE) binding site placed upstream of LacZ and flanked on both sides with LTR sequences (6× EcRE).
Dilution cloning was used to isolate individual clones. Clones were selected using 450 μg/ml G418 and 100 ng/ml puromycin. Individual clones were evaluated based on their response in the presence and absence of test ligands.
Human 293 kidney cells stably transformed with CVBE and 6× EcRE lack were maintained in Minimum Essential Medium (Mediates, 10-010-CV) containing 10%.FBS (Life Technologies, 26140-087),[…] G418 (Mediates, 30-234-CR), and […] (Sigma, P-7255), at 37° C. in an atmosphere containing 5% CO2 and were subculture when they reached 75% confluence.
Z3 cells were seeded into 96-well tissue culture plates at a concentration of 2.5×10^3 cells per well and incubated at 37° C. in 5% CO2 for twenty-four hours. Stock solutions of ligands were prepared in DMSO. Ligand stock solutions were diluted 100.fold in media and 50 μL of this diluted ligand solution (33 μM) was added to cells.
Reporter gene expression was evaluated 48 hours after treatment of cells, β-galactosidase activity was measured using Gal Screen™ bioluminescent reporter gene assay system from Tropix (GSY1000).
Flanking both constructs are long terminal repeats, G418 and puromycin are selectable markers, CMV is the cytomegalovirus promoter, VBE is coding sequence for amino acids 26-546 from Bombyx mori EcR inserted downstream of the VP16 transactivation domain, 6× EcRE is six copies of the ecdysone response element, lacZ encodes for the reporter enzyme β-galactosidase.

T1 sequence (P28704 286-520 A311G/G315S/G445S/I449V): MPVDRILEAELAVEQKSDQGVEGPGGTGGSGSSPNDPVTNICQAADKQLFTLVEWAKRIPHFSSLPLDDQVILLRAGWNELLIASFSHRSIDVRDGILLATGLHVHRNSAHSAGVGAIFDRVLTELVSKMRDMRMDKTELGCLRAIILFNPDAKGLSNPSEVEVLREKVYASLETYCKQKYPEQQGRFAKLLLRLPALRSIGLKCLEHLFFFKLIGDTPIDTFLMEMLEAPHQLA
T1 sequence (P49880 405-776): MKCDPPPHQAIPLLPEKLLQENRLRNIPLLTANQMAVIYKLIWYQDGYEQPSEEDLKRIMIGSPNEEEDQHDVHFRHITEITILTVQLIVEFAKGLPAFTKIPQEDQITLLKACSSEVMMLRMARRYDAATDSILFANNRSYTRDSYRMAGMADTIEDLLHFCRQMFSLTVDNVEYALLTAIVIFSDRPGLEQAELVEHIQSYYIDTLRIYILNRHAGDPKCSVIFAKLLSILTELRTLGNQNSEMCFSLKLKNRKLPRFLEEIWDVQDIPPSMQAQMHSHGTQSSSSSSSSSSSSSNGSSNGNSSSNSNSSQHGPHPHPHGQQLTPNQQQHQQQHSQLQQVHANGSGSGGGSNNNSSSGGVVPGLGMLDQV

Row | SMILES | Fold Induction Average, AA_3T3V1 Assay 33 μM (Gal4DBD/AaEcR (DEF)) [fold] | Fold Induction Average, Z3V1 Assay 33 μM [1] [fold] | fold induction at 33 µM (Gal4DBD/AaEcR (DEF); NIH3T3, read-out: Fold Induction Average, AA_3T3V1 Assay 33 μM) | fold induction at 33 µM ([1]; HEK293, 48 h, read-out: Fold Induction Average, Z3V1 Assay 33 μM)
1 | C[C@H]1C[C@H](Nc2ccccc2)c2ccccc2N1C(=O)c1ccccc1 (relative stereo) [Compound I-67] | 20 | 1 |  | 
2 | C[C@H]1C[C@H](Nc2ccccc2)c2ccccc2N1C(=O)c1cccc(F)c1 (relative stereo) [Compound I-68] | 282 | 8 |  | 
3 | C[C@H]1C[C@H](Nc2ccccc2)c2ccccc2N1C(=O)c1ccccc1C(F)(F)F (relative stereo) [Compound I-69] | 2 | 1 |  | 
4 | C[C@H]1C[C@H](Nc2ccccc2)c2ccccc2N1C(=O)c1cccc(C(F)(F)F)c1 (relative stereo) [Compound I-70] | 376 | 26 |  | 
5 | C[C@H]1C[C@H](Nc2ccccc2)c2ccccc2N1C(=O)c1ccc(C(F)(F)F)cc1 (relative stereo) [Compound I-71] | 291 | 2 |  | 
6 | Cc1ccc(N[C@H]2C[C@H](C)N(C(=O)c3ccccc3)c3ccc(C)cc32)cc1 (relative stereo) [Compound I-72] | 114 | 1 |  | 
7 | Cc1ccc(N[C@H]2C[C@H](C)N(C(=O)c3cccc(F)c3)c3ccc(C)cc32)cc1 (relative stereo) [Compound I-73] | 207 | 1 |  | 
8 | Cc1ccc(N[C@H]2C[C@H](C)N(C(=O)c3ccccc3C(F)(F)F)c3ccc(C)cc32)cc1 (relative stereo) [Compound I-74] | 22 | 1 |  | 
9 | Cc1ccc(N[C@H]2C[C@H](C)N(C(=O)c3cccc(C(F)(F)F)c3)c3ccc(C)cc32)cc1 (relative stereo) [Compound I-75] | 13 | 2 |  | 
10 | Cc1ccc(N[C@H]2C[C@H](C)N(C(=O)c3ccc(C(F)(F)F)cc3)c3ccc(C)cc32)cc1 (relative stereo) [Compound I-76] | 741 | 1 |  | 
11 | C[C@H]1C[C@H](Nc2ccc(F)cc2)c2cc(F)ccc2N1C(=O)c1cccc(F)c1 (relative stereo) [Compound I-77] | 272 | 153 |  | 
12 | C[C@H]1C[C@H](Nc2ccc(F)cc2)c2cc(F)ccc2N1C(=O)c1ccccc1C(F)(F)F (relative stereo) [Compound I-78] | 33 | 3 |  | 
13 | C[C@H]1C[C@H](Nc2ccc(F)cc2)c2cc(F)ccc2N1C(=O)c1cccc(C(F)(F)F)c1 (relative stereo) [Compound I-79] | 595 | 137 |  | 
14 | C[C@H]1C[C@H](Nc2ccc(F)cc2)c2cc(F)ccc2N1C(=O)c1ccc(C(F)(F)F)cc1 (relative stereo) [Compound I-80] | 914 | 37 |  | 
15 | COc1cccc(C(=O)N2c3ccccc3[C@@H](Nc3ccccc3)C[C@@H]2C)c1 (relative stereo) [Compound I-81] | 9 | 1 |  | 
16 | Cc1ccc(C(=O)N2c3ccccc3[C@@H](Nc3ccccc3)C[C@@H]2C)cc1 (relative stereo) [Compound I-82] | 79 | 1 |  | 

Row | SMILES | Fold Induction Average, AA_3T3V1 Assay 33 μM (Gal4DBD/AaEcR (DEF)) [fold] | Fold Induction Average, Z3V1 Assay 33 μM [1] [fold] | fold induction at 33 µM (Gal4DBD/AaEcR (DEF); NIH3T3, read-out: Fold Induction Average, AA_3T3V1 Assay 33 μM) | fold induction at 33 µM ([1]; HEK293, 48 h, read-out: Fold Induction Average, Z3V1 Assay 33 μM)
17 | COc1ccc(C(=O)N2c3ccccc3[C@@H](Nc3ccccc3)C[C@@H]2C)cc1 (relative stereo) [Compound I-83] | 345 | 8 |  | 
18 | COC(=O)c1ccc(C(=O)N2c3ccccc3[C@@H](Nc3ccccc3)C[C@@H]2C)cc1 (relative stereo) [Compound I-84] | 508 | 3 |  | 
19 | Cc1ccc(N[C@H]2C[C@H](C)N(C(=O)c3cccc(C)c3)c3ccc(C)cc32)cc1 (relative stereo) [Compound I-85] | 3 | 1 |  | 
20 | Cc1ccc(N[C@H]2C[C@H](C)N(C(=O)c3ccc(C)cc3)c3ccc(C)cc32)cc1 (relative stereo) [Compound I-87] | 250 | 1 |  | 
21 | COc1ccc(C(=O)N2c3ccc(C)cc3[C@@H](Nc3ccc(C)cc3)C[C@@H]2C)cc1 (relative stereo) [Compound I-88] | 213 | 1 |  | 
22 | COC(=O)c1ccc(C(=O)N2c3ccc(C)cc3[C@@H](Nc3ccc(C)cc3)C[C@@H]2C)cc1 (relative stereo) [Compound I-89] | 30 | 1 |  | 
23 | Cc1cccc(C(=O)N2c3ccc(F)cc3[C@@H](Nc3ccc(F)cc3)C[C@@H]2C)c1 (relative stereo) [Compound I-90] | 433 | 33 |  | 
24 | COc1cccc(C(=O)N2c3ccc(F)cc3[C@@H](Nc3ccc(F)cc3)C[C@@H]2C)c1 (relative stereo) [Compound I-91] | 542 | 107 |  | 
25 | Cc1ccc(C(=O)N2c3ccc(F)cc3[C@@H](Nc3ccc(F)cc3)C[C@@H]2C)cc1 (relative stereo) [Compound I-92] | 229 | 100 |  | 
26 | COc1ccc(C(=O)N2c3ccc(F)cc3[C@@H](Nc3ccc(F)cc3)C[C@@H]2C)cc1 (relative stereo) [Compound I-93] | 378 | 87 |  | 
27 | C[C@H]1C[C@H](Nc2ccccc2)c2ccccc2N1C(=O)c1ccc(C(C)(C)C)cc1 (relative stereo) [Compound I-134] | 39 | 1 |  | 
28 | COc1ccc(C(=O)N2c3ccc(C)cc3[C@@H](Nc3ccc(C)cc3)C[C@H]2C)cc1 (stereo in doubt) [Compound I-98, cis-2,6-dimethyl-1-(4-methoxybenzoyl)-4-(4-methylphenylamino)-1,2,3,4-tetrahydroquinoline] |  |  | 1 | 1
29 | CCc1ccc(C(=O)N2c3ccc(F)cc3C(Nc3ccc(F)cc3)CC2C)cc1 (centres unmarked) [Compound I-36] | 113 | 33 |  | 
30 | COC(=O)c1ccc(C(=O)N2c3ccc(F)cc3C(Nc3ccc(F)cc3)CC2C)cc1 (centres unmarked) [Compound I-37] | 37 | 1 |  | 
31 | CC1CC(Nc2ccc(F)cc2)c2cc(F)ccc2N1C(=O)c1ccc2c(c1)OCO2 (centres unmarked) [Compound I-38] | 76 | 10 |  | 

— US20050228016A1, “TETRAHYDROQUINOLINES FOR MODULATING THE EXPRESSION OF EXOGENOUS GENES VIA AN ECDYSONE RECEPTOR COMPLEX” (priority 2002, published 2005)
